This test has as its target T1, SHP2 protein (Homo sapiens, UniProt Q06124).
T1 sequence (Q06124 1-593): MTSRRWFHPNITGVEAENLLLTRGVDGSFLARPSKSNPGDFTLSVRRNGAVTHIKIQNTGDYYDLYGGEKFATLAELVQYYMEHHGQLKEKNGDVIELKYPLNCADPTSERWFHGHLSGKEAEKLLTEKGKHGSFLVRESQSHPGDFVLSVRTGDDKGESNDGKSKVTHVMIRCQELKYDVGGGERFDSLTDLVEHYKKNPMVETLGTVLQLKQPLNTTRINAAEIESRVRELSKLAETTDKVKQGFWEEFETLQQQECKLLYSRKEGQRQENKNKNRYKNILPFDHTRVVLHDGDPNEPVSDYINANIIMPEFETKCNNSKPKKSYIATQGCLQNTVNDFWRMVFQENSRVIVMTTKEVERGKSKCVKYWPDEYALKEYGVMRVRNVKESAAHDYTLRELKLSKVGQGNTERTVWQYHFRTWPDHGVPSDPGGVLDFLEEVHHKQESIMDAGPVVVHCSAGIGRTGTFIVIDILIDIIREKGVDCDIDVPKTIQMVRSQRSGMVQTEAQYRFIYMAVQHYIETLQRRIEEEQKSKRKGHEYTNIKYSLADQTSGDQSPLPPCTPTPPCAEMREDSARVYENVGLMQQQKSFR
Nature of the test: Measurement of SHP2 protein degradation in NCI-H358 cells (western blotting). Format: cell-based. Also on record: endogenous in cells; host or cells: NCI-H358. As to conditions: harvested after 24 hours. A digest of the protocol: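 H358 cells in RPMI1640/25 mM HEPES/10% FBS, cultured 24 h, then exposed to compound at final 0.001, 0.01 and 0.1 μM for 24 h against a DMSO control. Lysates were normalised for protein by BCA and probed by western blot for SHP2, with GAPDH as loading control.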

On to `Cc1cc(C(C(=O)N2C[C@H](O)C[C@H]2C(=O)NCc2ccc(-c3scnc3C)cc2OC2CCN(C(=O)C3CCN(c4nccc(Sc5cnc(N6CCC(C)(N)CC6)cn5)c4Cl)CC3)CC2)C(C)C)on1` (stereo partly drawn) [Example 94, (2S,4R)—N-(2-((1-(1-(4-((5-(4-amino-4-methylpiperidin-1-yl)pyrazin-2-yl)thio)-3-chloropyridin-2-yl)piperidine-4-carbonyl)piperidin-4-yl)oxy)-4-(4-methylthiazol-5-yl)benzyl)-4-hydroxy-1-(3-methyl-2-(3-methylisoxazol-5-yl)butanoyl)pyrrolidine-2-carboxamide], for which the SHP2% degradation runs as follows: (0.01 μM) 95.5%; (0.1 μM) 100.0%.
With `Cc1cc(C(C(=O)N2C[C@H](O)C[C@H]2C(=O)NCc2ccc(-c3scnc3C)cc2OC2CCN(C(=O)C3CCN(c4nccc(Sc5cnc(N6CCC7(CC6)CO[C@@H](C)[C@H]7N)cn5)c4Cl)CC3)CC2)C(C)C)on1` (stereo partly drawn) [Example 95, (2S,4R)—N-(2-((1-(1-(4-((5-((3S,4S)-4-amino-3-methyl-2-oxa-8-azaspiro[4.5]decan-8-yl)pyrazin-2-yl)thio)-3-chloropyridin-2-yl)piperidine-4-carbonyl)piperidin-4-yl)oxy)-4-(4-methylthiazol-5-yl)benzyl)-4-hydroxy-1-(3-methyl-2-(3-methylisoxazol-5-yl)butanoyl)pyrrolidine-2-carboxamide], the SHP2% degradation by setting is: (0.01 μM) 99.2%; (0.1 μM) 99.7%.
Consider `Cc1cc(C(C(=O)N2C[C@H](O)C[C@H]2C(=O)NCc2ccc(-c3scnc3C)cc2OC2CCN(C(=O)C3CCN(c4nccc(Sc5cnc(N6CCC(C)(CN)CC6)c(CO)n5)c4Cl)CC3)CC2)C(C)C)on1` (stereo partly drawn) [Example 96, (2S,4R)—N-(2-((1-(1-(4-((5-(4-(aminomethyl)-4-methylpiperidin-1-yl)-6-(hydroxymethyl)pyrazin-2-yl)thio)-3-chloropyridin-2-yl)piperidine-4-carbonyl)piperidin-4-yl)oxy)-4-(4-methylthiazol-5-yl)benzyl)-4-hydroxy-1-(3-methyl-2-(3-methylisoxazol-5-yl)butanoyl)pyrrolidine-2-carboxamide], for which the SHP2% degradation is, setting by setting: (0.01 μM) 98.9%; (0.1 μM) 99.9%.
Take `Cc1cc(C(C(=O)N2C[C@H](O)C[C@H]2C(=O)NCc2ccc(-c3scnc3C)cc2OC2CCN(C(=O)C3CCN(c4nccc(Sc5cnc(N6CCC(C)(N)CC6)c(CO)n5)c4Cl)CC3)CC2)C(C)C)on1` (stereo partly drawn) [Example 97, (2S,4R)—N-(2-((1-(1-(4-((5-(4-amino-4-methylpiperidin-1-yl)-6-(hydroxymethyl)pyrazin-2-yl)thio)-3-chloropyridin-2-yl)piperidine-4-carbonyl)piperidin-4-yl)oxy)-4-(4-methylthiazol-5-yl)benzyl)-4-hydroxy-1-(3-methyl-2-(3-methylisoxazol-5-yl)butanoyl)pyrrolidine-2-carboxamide]: the SHP2% degradation came to 95.0% (0.01 μM) and 99.7% (0.1 μM).
On to `Cc1cc(C(C(=O)N2C[C@H](O)C[C@H]2C(=O)NCc2ccc(-c3scnc3C)cc2OC2CCN(C(=O)C3CCN(c4nccc(Sc5cnc(N6CCC7(CC6)CO[C@@H](C)[C@H]7N)c(CO)n5)c4Cl)CC3)CC2)C(C)C)on1` (stereo partly drawn) [Example 98, (2S,4R)—N-(2-((1-(1-(4-((5-((3S,4S)-4-amino-3-methyl-2-oxa-8-azaspiro[4.5]decan-8-yl)-6-(hydroxymethyl)pyrazin-2-yl)thio)-3-chloropyridin-2-yl)piperidine-4-carbonyl)piperidin-4-yl)oxy)-4-(4-methylthiazol-5-yl)benzyl)-4-hydroxy-1-(3-methyl-2-(3-methylisoxazol-5-yl)butanoyl)pyrrolidine-2-carboxamide], for which the SHP2% degradation runs as follows: (0.01 μM) 99.6%; (0.1 μM) 99.7%.
For the compound `Cc1cnn(C(C(=O)N2C[C@H](O)C[C@H]2C(=O)NCc2ccc(-c3scnc3C)cc2OC2CCN(C(=O)C3CCN(c4nccc(Sc5cnc(N6CCC(C)(CN)CC6)cn5)c4Cl)CC3)CC2)C(C)C)c1` (stereo partly drawn) [Example 99, (2S,4R)—N-(2-((1-(1-(4-((5-(4-(aminomethyl)-4-methylpiperidin-1-yl)pyrazin-2-yl)thio)-3-chloropyridin-2-yl)piperidine-4-carbonyl)piperidin-4-yl)oxy)-4-(4-methylthiazol-5-yl)benzyl)-4-hydroxy-1-(3-methyl-2-(4-methyl-1H-pyrazol-1-yl)butanoyl)pyrrolidine-2-carboxamide], the SHP2% degradation is on record as −4.8% (0.01 μM) and 91.5% (0.1 μM).
With `Cc1cnn(C(C(=O)N2C[C@H](O)C[C@H]2C(=O)NCc2ccc(-c3scnc3C)cc2OC2CCN(C(=O)C3CCN(c4nccc(Sc5cnc(N6CCC(C)(CN)CC6)cn5)c4Cl)CC3)CC2)C(C)C)c1` (stereo partly drawn) [Example 100, (2S,4R)—N-(2-((1-(1-(4-((5-(4-(aminomethyl)-4-methylpiperidin-1-yl)pyrazin-2-yl)thio)-3-chloropyridin-2-yl)piperidine-4-carbonyl)piperidin-4-yl)oxy)-4-(4-methylthiazol-5-yl)benzyl)-4-hydroxy-1-(3-methyl-2-(4-methyl-1H-pyrazol-1-yl)butanoyl)pyrrolidine-2-carboxamide], the SHP2% degradation is −65.7% (0.01 μM) and −18.7% (0.1 μM).
Turning to `Cc1ncsc1-c1ccc(CNC(=O)[C@@H]2C[C@@H](O)CN2C(=O)[C@H](C(C)C)n2cc(C3CC3)nn2)c(OC2CCN(C(=O)C3CCN(c4nccc(Sc5cnc(N6CCC(C)(CN)CC6)cn5)c4Cl)CC3)CC2)c1` [Example 101, (2S,4R)—N-(2-((1-(1-(4-((5-(4-(aminomethyl)-4-methylpiperidin-1-yl)pyrazin-2-yl)thio)-3-chloropyridin-2-yl)piperidine-4-carbonyl)piperidin-4-yl)oxy)-4-(4-methylthiazol-5-yl)benzyl)-1-((S)-2-(4-cyclopropyl-1H-1,2,3-triazol-1-yl)-3-methylbutanoyl)-4-hydroxypyrrolidine-2-carboxamide], the SHP2% degradation was determined as 96.3% (0.01 μM) and 97.4% (0.1 μM).
For `Cc1ncsc1-c1ccc(CNC(=O)[C@@H]2C[C@@H](O)CN2C(=O)[C@H](C(C)C)n2cc(C3CC3)nn2)c(OC2CCN(C(=O)C3CCN(c4nccc(Sc5cnc(N6CCC(C)(N)CC6)cn5)c4Cl)CC3)CC2)c1` [Example 102, (2S,4R)—N-(2-((1-(1-(4-((5-(4-amino-4-methylpiperidin-1-yl)pyrazin-2-yl)thio)-3-chloropyridin-2-yl)piperidine-4-carbonyl)piperidin-4-yl)oxy)-4-(4-methylthiazol-5-yl)benzyl)-1-((S)-2-(4-cyclopropyl-1H-1,2,3-triazol-1-yl)-3-methylbutanoyl)-4-hydroxypyrrolidine-2-carboxamide], in that order: 99.4% and 99.8%.
As for `Cc1ncsc1-c1ccc(CNC(=O)[C@@H]2C[C@@H](O)CN2C(=O)[C@H](C(C)C)n2cc(C3CC3)nn2)c(OC2CCN(C(=O)C3CCN(c4nccc(Sc5cnc(N6CCC7(CC6)CO[C@@H](C)[C@H]7N)cn5)c4Cl)CC3)CC2)c1` [Example 103, (2S,4R)—N-(2-((1-(1-(4-((5-((3S,4S)-4-amino-3-methyl-2-oxa-8-azaspiro[4.5]decan-8-yl)pyrazin-2-yl)thio)-3-chloropyridin-2-yl)piperidine-4-carbonyl)piperidin-4-yl)oxy)-4-(4-methylthiazol-5-yl)benzyl)-1-((S)-2-(4-cyclopropyl-1H-1,2,3-triazol-1-yl)-3-methylbutanoyl)-4-hydroxypyrrolidine-2-carboxamide], the SHP2% degradation came out at 99.9% (0.01 μM) and 99.7% (0.1 μM).
With `Cc1ncsc1-c1ccc(CNC(=O)[C@@H]2C[C@@H](O)CN2C(=O)[C@H](C(C)C)n2cc(C3CC3)nn2)c(OC2CCN(C(=O)C3CCN(c4nccc(Sc5cnc(N6CCC(C)(CN)CC6)c(CO)n5)c4Cl)CC3)CC2)c1` [Example 104, (2S,4R)—N-(2-((1-(1-(4-((5-(4-(aminomethyl)-4-methylpiperidin-1-yl)-6-(hydroxymethyl)pyrazin-2-yl)thio)-3-chloropyridin-2-yl)piperidine-4-carbonyl)piperidin-4-yl)oxy)-4-(4-methylthiazol-5-yl)benzyl)-1-((S)-2-(4-cyclopropyl-1H-1,2,3-triazol-1-yl)-3-methylbutanoyl)-4-hydroxypyrrolidine-2-carboxamide], the SHP2% degradation runs as follows: (0.01 μM) 98.6%; (0.1 μM) 98.0%.
As for `Cc1ncsc1-c1ccc(CNC(=O)[C@@H]2C[C@@H](O)CN2C(=O)[C@H](C(C)C)n2cc(C3CC3)nn2)c(OC2CCN(C(=O)C3CCN(c4nccc(Sc5cnc(N6CCC(C)(N)CC6)c(CO)n5)c4Cl)CC3)CC2)c1` [Example 105, (2S,4R)—N-(2-((1-(1-(4-((5-(4-amino-4-methylpiperidin-1-yl)-6-(hydroxymethyl)pyrazin-2-yl)thio)-3-chloropyridin-2-yl)piperidine-4-carbonyl)piperidin-4-yl)oxy)-4-(4-methylthiazol-5-yl)benzyl)-1-((S)-2-(4-cyclopropyl-1H-1,2,3-triazol-1-yl)-3-methylbutanoyl)-4-hydroxypyrrolidine-2-carboxamide], the SHP2% degradation is reported as 98.4% (0.01 μM) and 97.9% (0.1 μM).

For the origin of these results see patent publication US20260144788A1, “COMPOUND FOR SHP2 PROTEIN DEGRADATION AND MEDICAL USES THEREOF” (UBIX THERAPEUTICS, INC., priority 2022, published 2026).
